Here are results for 2 molecules from patent US12252524B2, “GIP/GLP1 co-agonist compounds” (Eli Lilly and Company, priority 2018, dated 2025).

For one experiment, the target named is T1, human Gcg receptor (Homo sapiens, UniProt P47871).
T1 construct: expressed in transfected cells; crude membranes
The experiment in a line: [125I]-Glucagon binding (SPA), human Gcg receptor. The note with it: read-out: hGLcgR Ki, nM (SEM, n). In a few lines: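 Crude membranes from cells expressing the receptor, prepared by hypotonic lysis in 50 mM Tris HCl pH 7.5 with protease inhibitors, homogenization and differential centrifugation, were used in a WGA-bead SPA. Binding buffer: 25 mM HEPES pH 7.4, 2.5 mM CaCl2, 1 mM MgCl2, bacitracin, Tween-20.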

Experiment [1] addresses human GLP-1 receptor (GLP-1R) (Homo sapiens, UniProt P43220). The experiment in a line: cAMP pharmacological functional assay in presence of casein, hGLP-1R. Format: cell-based. As to conditions: HEK293 cells expressing hGLP-1R, 0.1% Casein, geometric mean; read-out: hGLP1R cAMP Rel EC50 nM (SEM, n).
Experiment [2] concerns the target T2, gastric inhibitory peptide receptor (GIPR) (Homo sapiens, UniProt P48546).
T2 sequence (P48546 22-466): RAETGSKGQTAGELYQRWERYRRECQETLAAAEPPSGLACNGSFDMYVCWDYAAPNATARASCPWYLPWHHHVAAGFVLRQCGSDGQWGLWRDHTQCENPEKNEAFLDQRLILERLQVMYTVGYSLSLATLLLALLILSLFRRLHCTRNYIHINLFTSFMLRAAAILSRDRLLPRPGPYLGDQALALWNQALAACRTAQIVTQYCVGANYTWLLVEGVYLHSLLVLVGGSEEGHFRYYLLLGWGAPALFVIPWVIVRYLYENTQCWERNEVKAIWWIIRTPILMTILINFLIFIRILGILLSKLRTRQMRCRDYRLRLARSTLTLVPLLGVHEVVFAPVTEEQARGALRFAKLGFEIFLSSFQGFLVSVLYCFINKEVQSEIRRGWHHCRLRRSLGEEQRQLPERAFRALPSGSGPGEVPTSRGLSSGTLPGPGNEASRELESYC
Briefly: cAMP pharmacological functional assay in presence of casein, hGIPR. The experiment is classed as cell-based. As to conditions: HEK293 cells expressing hGIPR, 0.1% Casein, geometric mean; read-out: hGIPR cAMP Rel EC50 nM (SEM, n).

The target in the next experiment is T3, human GIP receptor (Homo sapiens, UniProt P48546).
T3 construct: expressed in transfected cells; crude membranes
T3 sequence (P48546 22-466): T2 sequence (P48546 22-466)
The experiment in a line: [125I]-GIP binding (SPA), human GIP receptor. As to conditions: read-out: hGIPR Ki, nM (SEM, n).

A further experiment addresses human GLP-1R (Homo sapiens, UniProt P43220). The experiment in a line: [125I]-GLP-1 binding (SPA), human GLP-1 receptor. Also on record: expressed in transfected cells; crude membranes. The note with it: read-out: hGLP1R Ki, (nM) (SEM, n). In a few lines: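 Crude-membrane binding assay; one membrane prep included 1 mM MgCl2 and 25 units/ml DNAse I during lysis. Assay buffer at pH 7.4 contains 0.1% (w/v) bacitracin and 0.003% (w/v) TWEEN-20. Ki is reported as geometric mean.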

Numbered stars: 1 amine (or outer) side, 2 acyl side, 3 side chain; on linkers, the order of the positions; unused ones are H or OH. Square brackets hold non-standard residues; d marks the D form. Side chains are listed from the residue outwards. Peptide text beside a SMILES is read from it. * marks the point of attachment. C20 diacid = O=C(O)CCCCCCCCCCCCCCCCCCC(=O)*; C18 diacid = O=C(O)CCCCCCCCCCCCCCCCC(=O)*; αMePhe(2-F) = C[C@](N)(Cc1ccccc1F)C(=O)O; γGlu = O=C(O)[C@H](CCC(=O)[*:2])N[*:1]; Nle = CCCC[C@H](N)C(=O)O; Orn = NCCC[C@H](N)C(=O)O; AEEA = NCCOCCOCC(=O)O; Aib = CC(C)(N)C(=O)O

Sequence of human GLP-1 receptor (GLP-1R) (P43220 24-463): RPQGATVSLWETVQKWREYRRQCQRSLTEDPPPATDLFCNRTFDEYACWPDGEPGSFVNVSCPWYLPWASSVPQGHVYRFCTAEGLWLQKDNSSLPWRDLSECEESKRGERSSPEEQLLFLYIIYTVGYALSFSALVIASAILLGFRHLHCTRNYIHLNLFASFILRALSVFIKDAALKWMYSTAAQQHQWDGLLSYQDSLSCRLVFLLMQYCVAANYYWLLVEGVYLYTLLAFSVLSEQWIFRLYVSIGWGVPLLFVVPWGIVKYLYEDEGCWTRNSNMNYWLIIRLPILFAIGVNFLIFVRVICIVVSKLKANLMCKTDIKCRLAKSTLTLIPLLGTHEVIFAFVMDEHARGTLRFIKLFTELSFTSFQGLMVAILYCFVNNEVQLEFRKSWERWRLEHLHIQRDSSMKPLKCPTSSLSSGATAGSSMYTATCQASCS
Sequence of human GLP-1R (P43220 24-463): as above
T1 sequence (P47871 26-477): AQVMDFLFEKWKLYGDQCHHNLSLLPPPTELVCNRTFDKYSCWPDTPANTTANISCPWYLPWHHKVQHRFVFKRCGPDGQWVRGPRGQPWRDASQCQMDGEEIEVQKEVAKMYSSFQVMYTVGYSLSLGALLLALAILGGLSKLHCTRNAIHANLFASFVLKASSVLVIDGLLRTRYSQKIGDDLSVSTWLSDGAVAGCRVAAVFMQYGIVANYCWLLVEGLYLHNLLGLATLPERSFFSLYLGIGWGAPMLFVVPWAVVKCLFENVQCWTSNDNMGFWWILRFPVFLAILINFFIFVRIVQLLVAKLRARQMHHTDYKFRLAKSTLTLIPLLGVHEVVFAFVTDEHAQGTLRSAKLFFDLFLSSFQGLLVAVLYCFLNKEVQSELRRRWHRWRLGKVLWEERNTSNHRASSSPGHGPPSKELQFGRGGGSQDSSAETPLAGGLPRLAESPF

What is called Ki is the dissociation constant of the complex between target and ligand, obtained from inhibition or displacement. What is called EC50 is the concentration giving half of the maximal effect. Consider `CCCC[C@H](NC(=O)[C@@H](NC(=O)[C@H](CO)NC(=O)[C@H](Cc1ccc(O)cc1)NC(=O)[C@H](CC(=O)O)NC(=O)[C@H](CO)NC(=O)[C@@H](NC(=O)[C@](C)(Cc1ccccc1F)NC(=O)[C@@H](NC(=O)CNC(=O)[C@H](CCC(=O)O)NC(=O)C(C)(C)NC(=O)[C@@H](N)Cc1ccc(O)cc1)[C@@H](C)O)[C@@H](C)O)[C@@H](C)CC)C(=O)N[C@@H](CC(C)C)C(=O)N[C@@H](CC(=O)O)C(=O)N[C@@H](CCCN)C(=O)N[C@@H](CCCCNC(=O)COCCOCCNC(=O)COCCOCCNC(=O)CC[C@H](NC(=O)CCCCCCCCCCCCCCCCC(=O)O)C(=O)O)C(=O)N[C@@H](C)C(=O)N[C@@H](CCC(N)=O)C(=O)NC(C)(C)C(=O)N[C@@H](CCC(=O)O)C(=O)N[C@@H](Cc1ccccc1)C(=O)N[C@H](C(=O)N[C@H](CCC(=O)O)C(=O)N[C@@H](Cc1ccc(O)cc1)C(=O)N[C@@H](CC(C)C)C(=O)N[C@H](C(=O)N[C@@H](CCC(=O)O)C(=O)NCC(=O)NCC(=O)N1CCC[C@H]1C(=O)N[C@@H](CO)C(=O)N[C@@H](CO)C(=O)NCC(=O)N[C@@H](C)C(=O)N1CCC[C@H]1C(=O)N1CCC[C@H]1C(=O)N1CCC[C@H]1C(=O)N[C@@H](CO)C(N)=O)[C@@H](C)CC)[C@@H](C)CC` [Example 249] (H-Y[Aib]EGT[αMePhe(2-F)]TSDYSI[Nle]LD[Orn]K([AEEA-AEEA-γGlu-C18 diacid])AQ[Aib]EFI[dE]YLIEGGPSSGAPPPS-NH2), for which the Ki on human Gcg receptor was above 1000 nM; on human GIP receptor, 0.0394 nM; on human GLP-1R, 2.35 nM. In addition, the figures for the EC50 in experiment [1] and in experiment [2] were 0.0446 nM and 0.0437 nM, respectively.

In the case of `CC[C@H](C)[C@H](NC(=O)[C@H](CC(C)C)NC(=O)[C@H](Cc1ccc(O)cc1)NC(=O)[C@@H](CCC(=O)O)NC(=O)[C@@H](NC(=O)[C@H](Cc1ccccc1)NC(=O)[C@H](CCC(=O)O)NC(=O)C(C)(C)NC(=O)[C@H](CCC(N)=O)NC(=O)[C@H](C)NC(=O)[C@H](CCCCNC(=O)COCCOCCNC(=O)COCCOCCNC(=O)CC[C@H](NC(=O)CCCCCCCCCCCCCCCCCCC(=O)O)C(=O)O)NC(=O)[C@H](CCCN)NC(=O)[C@H](CC(=O)O)NC(=O)[C@H](CC(C)C)NC(=O)C(C)(C)NC(=O)[C@@H](NC(=O)[C@H](CO)NC(=O)[C@H](Cc1ccc(O)cc1)NC(=O)[C@H](CC(=O)O)NC(=O)[C@H](CO)NC(=O)[C@@H](NC(=O)[C@](C)(Cc1ccccc1F)NC(=O)[C@@H](NC(=O)CNC(=O)[C@H](CCC(=O)O)NC(=O)C(C)(C)NC(=O)[C@@H](N)Cc1ccc(O)cc1)[C@@H](C)O)[C@@H](C)O)[C@@H](C)CC)[C@@H](C)CC)C(=O)N[C@@H](CCC(=O)O)C(=O)NCC(=O)NCC(=O)N1CCC[C@H]1C(=O)N[C@@H](CO)C(=O)N[C@@H](CO)C(=O)NCC(=O)N[C@@H](C)C(=O)N1CCC[C@H]1C(=O)N1CCC[C@H]1C(=O)N1CCC[C@H]1C(=O)N[C@@H](CO)C(N)=O` [Example 250] (H-Y[Aib]EGT[αMePhe(2-F)]TSDYSI[Aib]LD[Orn]K([AEEA-AEEA-γGlu-C20 diacid])AQ[Aib]EFI[dE]YLIEGGPSSGAPPPS-NH2), the Ki on human Gcg receptor was 198 nM; at human GIP receptor it was 0.0171 nM; at human GLP-1R, 1.72 nM. The EC50 is 0.0306 nM in experiment [1] and 0.0376 nM in experiment [2].
